Our source for the Ki values is ChEMBL document CHEMBL3112489 (Bioorg Med Chem Lett, 2014).

Test [1] can be described thus: Inhibition of Legionella pneumophila carbonic anhydrase 1 preincubated for 15 mins by stopped-flow CO2 hydrase assay.
Test [2] can be described thus: Inhibition of Legionella pneumophila carbonic anhydrase 2 preincubated for 15 mins by stopped-flow CO2 hydrase assay.

`CC(=O)Nc1nnc(S(N)(=O)=O)s1` [ACETAZOLAMIDE]: the Ki – broadly, a measure of affinity in units of concentration, obtained from inhibition or displacement – was found to be 0.095 µM in test [1] and 0.036 µM in test [2]. The corresponding values for `CCN(CC)C(=S)S` [DITIOCARB SODIUM] are 6 µM and 2 µM. On to `O=[As](O)(O)c1ccccc1` [PHENYLARSONIC ACID], for which the Ki in test [1] worked out at 84 µM; in test [2], 8 µM. With `OB(O)c1ccccc1` [PHENYLBORONIC ACID], the Ki in test [1] is 65 µM; in test [2], 6 µM. In the case of `[N-]=[N+]=[N-]` [SODIUM AZIDE], the Ki stood at 77 µM in test [1] and 450 µM in test [2].

As to `O=C([O-])O.[Na+]` [SODIUM BICARBONATE], the figures for the Ki in test [1] and in test [2] were 3500 µM and 6600 µM, respectively. On to `O=S([O-])O.[Na+]` [SODIUM BISULFITE], for which the Ki in test [1] was found to be 6600 µM; in test [2], 7200 µM. Turning to `[Br-].[Na+]` [SODIUM BROMIDE], the Ki in test [1] amounted to 650 µM; in test [2], 8000 µM.

For `O=C([O-])[O-].[Na+].[Na+]` [SODIUM CARBONATE], the Ki in test [1] turned out to be 4700 µM; in test [2], 4800 µM. In the case of `S=C(S)S` [SODIUM CARBONOTRITHIOATE], the Ki in test [1] was determined as 530 µM; in test [2], 620 µM. In the same order, the values of `[Cl-].[Na+]` [SODIUM CHLORIDE] are 790 µM and 810 µM.

For `N#CO` [SODIUM CYANATE], the Ki in test [1] was determined as 660 µM; in test [2], 960 µM.

Turning to `[F-].[Na+]` [SODIUM FLUORIDE], the results for the Ki in test [1] and in test [2] were 910 µM and 770 µM, respectively. In the same order, the values of `S` [SODIUM HYDROSULFIDE] are 76 µM and 510 µM.

Take `O=S(=O)(O)NS(=O)(=O)O` [SODIUM IMINODISULFONATE]: the values for the Ki in test [1] and in test [2] were 1170 µM and 590 µM, respectively.

With `[I-].[Na+]` [SODIUM IODIDE], the Ki in test [1] is 320 µM; in test [2] it was 59100 µM. In the same order, the values of `N=C=[Se]` [SODIUM ISOSELENOCYANATE] are 980 µM and 660 µM. In the same order, the values of `N=C=S` [SODIUM ISOTHIOCYANATE] are 520 µM and 880 µM. The corresponding values for `O=[N+]([O-])[O-].[Na+]` [SODIUM NITRATE] are 7600 µM and 30100 µM. Take `O=NO` [SODIUM NITRITE]: the Ki came out at 7900 µM in test [1] and 5800 µM in test [2].

`[O-][Cl+3]([O-])([O-])O` [SODIUM PERCHLORATE]: the Ki in test [1] and in test [2] was more than 200000 µM in each case. With `O=S(=O)(O)OOS(=O)(=O)O` [SODIUM PERSULFATE], the Ki in test [1] came to 850 µM; in test [2], 570 µM. In the same order, the values of `O=P(O)(O)OP(=O)(O)O` [SODIUM PYROPHOSPHATE] are 940 µM and 830 µM. The corresponding values for `O=[Se](=O)(O)O` [SODIUM SELENATE] are 7300 µM and 660 µM.

`O=S(=O)([O-])[O-].[Na+].[Na+]` [SODIUM SULFATE ANHYDROUS]: the inhibition constant Ki in test [1] was determined as 77900 µM; in test [2], 96500 µM. In the case of `O=[Te](=O)(O)O` [SODIUM TELLURATE], the Ki worked out at 240 µM in test [1] and 290 µM in test [2]. As to `O=BOB(O)OB(O)OB=O` [SODIUM TETRABORATE], the Ki turned out to be 600 µM in test [1] and 550 µM in test [2].

On to `F[B-](F)(F)F.[Na+]` [SODIUM TETRAFLUOROBORATE], for which the Ki in test [1] and in test [2] was more than 200000 µM each time. In the case of `NS(=O)(=O)O` [SULFAMATE], the Ki in test [1] was 76 µM; in test [2], 13 µM. For the compound `NS(N)(=O)=O` [SULFAMIDE], in test [1], the affinity corresponds to a Ki of 94 µM.
